Measurements published in patent publication US20240342238A1, “PEPTIDE HAVING OBESITY AND MUSCLE LOSS INHIBITORY ACTIVITIES, AND USE THEREOF” (Korea University Research and Business Foundation, priority 2021, published 2024).

Tests used:
S6 = S6 phosphorylation in L6 skeletal muscle cells (Western blot); type: cell-based; details: 100 nM, 1 hour; for phosphorylation of S6 (in words): FIG. 9
Description: (§1) The effect of the peptide of the present invention on muscles was confirmed. After culturing L6 skeletal muscle cells in a 6-well plate, the cells were starved with 0.5% FBS. Afterward, 100 nM of each peptide was treated for 1 hour, and proteins were collected and subjected to Western blot.

FoxO1 = FoxO1 phosphorylation and total FoxO1 in L6 skeletal muscle cells (Western blot); type: cell-based; details: 100 nM, 1 hour
Description: as §1

[1] = tested on: CCAAT enhancer binding protein α (C/EBPα); test: C/EBPα gene expression in muscle tissue of db/db mouse model (RT-PCR); type: in vivo; details: muscle tissue of db/db mice, 2.5 mg/kg i.p. daily, 8 weeks
Description: (§2) The obesity-improving effect of a peptide was confirmed by inducing body weight gain in an animal model in which diabetes was induced due to the defect in a leptin receptor. Specifically, C57BLKS/J-db/db 5-week-old male mice were purchased from the Central Laboratory Animal Inc., provided with a normal diet for one week, and used after an acclimation period. The breeding environment was maintained at 18 to 24° C. and a humidity of 50 to 60%, and during the acclimation period and the experimental period, free feeding was implemented with free access to normal feed and water.
(§3) The mice that underwent the acclimation period were divided into a control and a peptide-treated group. The control group was administered PBS, and the peptide-treated group was administered Peptide No. 7 or 8 (2.5 mg/kg) intraperitoneally every day for a total of 8 weeks.
(§4) As a result of RT-PCR, it was confirmed that, by the treatment of Peptide No. 7 or 8, the expression of adipocyte protein 2 (AP2) and CCAAT enhancer binding protein α (C/EBPα) genes, which are involved in lipid accumulation, was reduced, and the expression of a peroxisome proliferator-activated receptor α (PPARα) gene, involved in fatty acid oxidation, was increased. […]

[2] = tested on: Muscle RING Finger-1 (Murf-1); test: Murf-1 gene expression in muscle tissue of db/db mouse model (RT-PCR); type: in vivo; details: muscle tissue of db/db mice, 2.5 mg/kg i.p. daily, 8 weeks
Description: as §2, §3, §4

[3] = tested on: peroxisome proliferator-activated receptor α (PPARα); test: PPARα gene expression in muscle tissue of db/db mouse model (RT-PCR); type: in vivo; details: muscle tissue of db/db mice, 2.5 mg/kg i.p. daily, 8 weeks
Description: as §2, §3, §4

[4] = tested on: adipocyte protein 2 (AP2); test: AP2 gene expression in muscle tissue of db/db mouse model (RT-PCR); type: in vivo; details: muscle tissue of db/db mice, 2.5 mg/kg i.p. daily, 8 weeks
Description: as §2, §3, §4

With “REAGGAFGKR (listed as Homo sapiens) [No. 3]” the “phosphorylation of S6 (in words)” value (S6) was “increased”.
“AQSREQLAALKK (listed as Homo sapiens) [No. 5]” was tested, and the “increase of phosphorylation of the S6 protein” value (shortened to “increase”) (S6) was 494%.
For YFR (listed as Homo sapiens) [No. 1], the “expression level of total FoxO1” value (FoxO1) was “decreased”, the “phosphorylation of FoxO1” value (FoxO1) was “increased” and the “increase” value (S6) was 188%.
With “EQAEEERYFR (listed as Homo sapiens) [No. 4]” the “increase” value (S6) was 224%.
“YFRAQSREQLAALKKHH (listed as Homo sapiens) [No. 6]” was tested, and the “phosphorylation of S6 (in words)” value (S6) was “increased”.
“AGSIREAGGAFGKREQAEEERYFR (listed as Homo sapiens) [No. 7]” was tested, and the “change in C/EBPα gene expression” value [1] was −18.6%, the “change in Murf-1 gene expression” value [2] was −90.1% and the “change in PPARα gene expression” value [3] was “+94.1%”. For the same substance, the “change in AP2 gene expression” value [4] was −52.5% and the “phosphorylation of S6 (in words)” value (S6) was “increased”.
“VDRGAGSIREAGGAFGKREQAEEERYFR (listed as Homo sapiens) [No. 8]” was tested, and the “change in C/EBPα gene expression” value [1] was −45.5%, the “change in Murf-1 gene expression” value [2] was −36.0% and the “change in PPARα gene expression” value [3] was “+12.9%”. The “change in AP2 gene expression” value [4] was −54.7% and the “increase” value (S6) was 414%.
With “EQAEEER (listed as Homo sapiens) [No. 2]” the “increase” value (S6) was 365%.
